The record followed here is patent US6686394B1, “Aryl-chloro-ethyl ureas” (Sovar, Societe en Commandite, priority 1999, dated 2004).

Broadly, the IC50 is the midpoint of a concentration-inhibition curve.

One experiment has as its system MDA-MB-231 (human breast cancer cells). The experiment in a line: In-vitro cytotoxicity, MTT assay (Example 1). To be noted: MDA-MB-231, 120 h, Table I, four to five days in the presence of drugs. It is filed as cell-based. On the procedure: (§1) The conventional evaluation method proposed by the American National Cancer Institute was used. The method measures effectiveness of an anti-cancer drug based on IC50 which symbolizes the drug concentration in μM at which the drug achieves the inhibition of proliferation of a given line of cancer cells by a factor of one half when compared to the normal proliferation of the same line of cancer cells in the same growth media
(§2) CAU were tested on several cell lines including human non-hormone-dependant breast cancer cells (MDA-MB-231), and mouse leukemia (L1210). MDA-MB-231. These cell lines were obtained from the American Type Culture Collection (Bethesda, Md., USA). Cytotoxicity of CAU derivatives was tested and compared to the effect of chlorambucil and carmustine.
(§3) Tumor cells were grown in RPMI-1640 medium supplemented with 10% fetal calf serum, 2 mM glutamine and 64 U/mL of gentamycin. Cells were routinely passaged at 90% confluence.
(§4) Five thousand cells (100 μl) were seeded in 96 well's plate and incubated for one day at 37° C. under a humidified atmosphere, in presence of 5% CO2. […]
(§5) Cell's survival was evaluated by colorimetric assay using MTT, according to a modification of the procedure reported by Carmichael and coil. […] The plates were then shaken for 15 minutes and the absorbance read at 570 nm with a Behring Elisa Procesor II (Behring, Marburg, Germany). […]
(In general: Tetrazolium assays rely on reduction of a dye to a coloured formazan, in cell work by metabolically active cells.)
Consider `O=NN(CCCl)C(=O)NCCCl` [Carmustine, carmustine], for which the IC50 was found to be 6.8 µM.

Another experiment concerns L1210 (mouse leukemia cells). The experiment in a line: In-vitro cytotoxicity, MTT assay (Example 1). It is filed as cell-based. To be noted: L1210, 120 h, Table I, four to five days in the presence of drugs. On the procedure: as §1, §2, §3, §4, §5
For `O=NN(CCCl)C(=O)NCCCl` [Carmustine, carmustine], the IC50 worked out at 4.5 µM.

The next experiment relates to CHO. The experiment in a line: Cytotoxicity assay G50, MTT or resazurin (Example 29). It is filed as cell-based, Chinese Hamster. To be noted: Cricetulus griseus; cell line CHO. On the procedure: (§6) The MTT assay was as described above in Example 1. The Resazurin assay was performed as follows:
(§7) Aspirate the supernatant (cell suspension: centrifuge first)
(§8) Add 100 μL NaCl 0.9% (saline)
(§9) Add 50 μL RZ (resazurin 125 μg/ml/PBS: RPMI without FBS; 1:4)
(§10) Collect fluorescence data at different time.
`CCCC(CCl)NC(=O)Nc1ccc(C2CCCCC2)cc1` (racemic) [Example 25] returned an IC50 of 2.12 µM.

Regarding `COc1ccc(NC(=O)N[C@H](C)CCl)cc1OC` [Example 17], half-maximal inhibition (IC50) required 32.2 µM.

Regarding `COc1ccc(NC(=O)N[C@@H](C)CCl)cc1OC` [Example 18], the IC50 was more than 100 µM.

Turning to `CC[C@@H](CCl)NC(=O)Nc1ccc(OC)c(OC)c1` [Example 19], the IC50 is more than 100 µM.

In turn, `CC[C@H](CCl)NC(=O)Nc1ccc(OC)c(OC)c1` [Example 20] returned an IC50 of more than 100 µM.

The test system of a further experiment is L1210. Described as above. The note with it: Mus musculus; cell line L1210. It is filed as cell-based. On the procedure:
as §6, §7, §8, §9, §10
`CCCC(CCl)NC(=O)Nc1ccc(C2CCCCC2)cc1` (racemic) [Example 25] showed an IC50 of 4.12 µM.

Take `COc1ccc(NC(=O)N[C@H](C)CCl)cc1OC` [Example 17]: the IC50 was 10.3 µM.

As for `COc1ccc(NC(=O)N[C@@H](C)CCl)cc1OC` [Example 18], the IC50 was more than 100 µM.

Consider `CC[C@@H](CCl)NC(=O)Nc1ccc(OC)c(OC)c1` [Example 19], for which the IC50 was more than 100 µM.

`CC[C@H](CCl)NC(=O)Nc1ccc(OC)c(OC)c1` [Example 20] gave an IC50 of more than 100 µM.

The next experiment relates to MCF-7. Described as above. It is filed as cell-based. To be noted: Homo sapiens, MCF7; cell line MCF-7. On the procedure: as §6, §7, §8, §9, §10
The compound `CCCC(CCl)NC(=O)Nc1ccc(C2CCCCC2)cc1` (racemic) [Example 25] displayed an IC50 of 5.05 µM.

Compound `COc1ccc(NC(=O)N[C@H](C)CCl)cc1OC` [Example 17] displayed an IC50 of 25.1 µM.

`COc1ccc(NC(=O)N[C@@H](C)CCl)cc1OC` [Example 18] displayed an IC50 of more than 100 µM.

Take `CC[C@@H](CCl)NC(=O)Nc1ccc(OC)c(OC)c1` [Example 19]: the IC50 is more than 100 µM.

For the compound `CC[C@H](CCl)NC(=O)Nc1ccc(OC)c(OC)c1` [Example 20], the IC50 was more than 100 µM.

In the next experiment the test system is T24. The description is as above. It is filed as cell-based. To be noted: Homo sapiens, T-24; cell line T24. On the procedure: as §6, §7, §8, §9, §10
`CCCC(CCl)NC(=O)Nc1ccc(C2CCCCC2)cc1` (racemic) [Example 25]: the IC50 came out at 4.24 µM.

`COc1ccc(NC(=O)N[C@H](C)CCl)cc1OC` [Example 17] registered an IC50 of 12.4 µM.

As for `COc1ccc(NC(=O)N[C@@H](C)CCl)cc1OC` [Example 18], the IC50 was more than 100 µM.

For `CC[C@@H](CCl)NC(=O)Nc1ccc(OC)c(OC)c1` [Example 19], the IC50 was more than 100 µM.

As for `CC[C@H](CCl)NC(=O)Nc1ccc(OC)c(OC)c1` [Example 20], the IC50 was more than 100 µM.

The next experiment concerns K562. The experiment is described as above. It is filed as cell-based. To be noted: Homo sapiens; cell line K562. Here is the method: as §6, §7, §8, §9, §10
`CCCC(CCl)NC(=O)Nc1ccc(C2CCCCC2)cc1` (racemic) [Example 25] returned an IC50 of 4.93 µM.

As for `COc1ccc(NC(=O)N[C@H](C)CCl)cc1OC` [Example 17], the IC50 stood at 9.62 µM.

Compound `COc1ccc(NC(=O)N[C@@H](C)CCl)cc1OC` [Example 18] registered an IC50 of more than 100 µM.

For the compound `CC[C@@H](CCl)NC(=O)Nc1ccc(OC)c(OC)c1` [Example 19], the IC50 was more than 100 µM.

For the compound `CC[C@H](CCl)NC(=O)Nc1ccc(OC)c(OC)c1` [Example 20], the half-inhibitory concentration (IC50) was more than 100 µM.

The next experiment deals with Caco-2. The description is as above. The note with it: Homo sapiens; cell line Caco-2. It is filed as cell-based. On the procedure:
(§11) Cell culture. Tumor cell lines (B16-F0, Caco-2, DU-145, HT-29, MDA-MB-231 and other cell lines described so far in the patent application) were obtained from the American Type Culture Collection (ATCC HTB-26; Bethesda, Md.). Cells were grown in RPMI 1640 medium supplemented with 10% fetal bovine serum (Hyclone, Road Logan, Utah) and were cultured in a humidified atmosphere at 37° C. in 5% CO2.
(§12) Drugs: All drugs were dissolved in DMSO and the final concentration of DMSO in the culture medium was maintained at 0.5% (v/v).
(§13) Cytotoxiciy assays. At day-1, tumor cells in suspension in 100 μl were plated in microtiter plates (96 wells). On day-0, tumor cells were treated by addition of escalating concentrations of the drug (100 μl solution). On that day, the number of living cells was determined in wells that were untreated. The number of living cells is determined using either MTT or resazurin assays. Growth inhibition activity of these compounds was expressed as the concentration of CAU inhibiting cell growth by 50% G50 in the following table
as §6, §7, §8, §9, §10
In turn, `CCCC(CCl)NC(=O)Nc1ccc(C2CCCCC2)cc1` (racemic) [Example 25] displayed an IC50 of 6.04 µM.

`COc1ccc(NC(=O)N[C@H](C)CCl)cc1OC` [Example 17]: the IC50 was more than 100 µM.

`COc1ccc(NC(=O)N[C@@H](C)CCl)cc1OC` [Example 18] came in with an IC50 of more than 100 µM.

Compound `CC[C@@H](CCl)NC(=O)Nc1ccc(OC)c(OC)c1` [Example 19] displayed an IC50 of more than 100 µM.

`CC[C@H](CCl)NC(=O)Nc1ccc(OC)c(OC)c1` [Example 20] came in with an IC50 of more than 100 µM.

The next experiment deals with B16-F0. The experiment is described as above. It is filed as cell-based. To be noted: Mus musculus, B16F0; cell line B16-F0. On the procedure:
as §11, §12, §13, §6, §7, §8, §9, §10
Compound `CCCC(CCl)NC(=O)Nc1ccc(C2CCCCC2)cc1` (racemic) [Example 25] gave an IC50 of 4.14 µM.

As for `COc1ccc(NC(=O)N[C@H](C)CCl)cc1OC` [Example 17], the IC50 was 26.4 µM.

For `COc1ccc(NC(=O)N[C@@H](C)CCl)cc1OC` [Example 18], the IC50 is more than 100 µM.

As for `CC[C@@H](CCl)NC(=O)Nc1ccc(OC)c(OC)c1` [Example 19], the 50% inhibitory concentration (IC50) is more than 100 µM.

In turn, `CC[C@H](CCl)NC(=O)Nc1ccc(OC)c(OC)c1` [Example 20] yielded an IC50 of more than 100 µM.

The next experiment deals with HT-29. The description is as above. The note with it: Homo sapiens; cell line HT-29. It is filed as cell-based. Here is the method:
as §11, §12, §13, §6, §7, §8, §9, §10
In turn, `CCCC(CCl)NC(=O)Nc1ccc(C2CCCCC2)cc1` (racemic) [Example 25] had an IC50 of 3.03 µM.

Compound `COc1ccc(NC(=O)N[C@H](C)CCl)cc1OC` [Example 17] registered an IC50 of 14.8 µM.

Regarding `COc1ccc(NC(=O)N[C@@H](C)CCl)cc1OC` [Example 18], the IC50 was more than 100 µM.

Take `CC[C@@H](CCl)NC(=O)Nc1ccc(OC)c(OC)c1` [Example 19]: the IC50 was more than 100 µM.

With `CC[C@H](CCl)NC(=O)Nc1ccc(OC)c(OC)c1` [Example 20], the IC50 is more than 100 µM.

For a further experiment, the system named is DU-145. The description is as above. The note with it: Homo sapiens; cell line DU-145. It is filed as cell-based. Here is the method:
as §11, §12, §13, §6, §7, §8, §9, §10
The compound `CCCC(CCl)NC(=O)Nc1ccc(C2CCCCC2)cc1` (racemic) [Example 25] gave an IC50 of 4.3 µM.

Take `COc1ccc(NC(=O)N[C@H](C)CCl)cc1OC` [Example 17]: the IC50 worked out at 34.9 µM.

On to `COc1ccc(NC(=O)N[C@@H](C)CCl)cc1OC` [Example 18], for which the IC50 is more than 100 µM.

In turn, `CC[C@@H](CCl)NC(=O)Nc1ccc(OC)c(OC)c1` [Example 19] returned an IC50 of more than 100 µM.

In turn, `CC[C@H](CCl)NC(=O)Nc1ccc(OC)c(OC)c1` [Example 20] registered a concentration for half-maximal inhibition (IC50) of more than 100 µM.

For another experiment, the system named is MDA-MB-231. Described as above. It is filed as cell-based. To be noted: Homo sapiens; cell line MDA-MB-231. Here is the method: as §11, §12, §13, §6, §7, §8, §9, §10
As for `CCCC(CCl)NC(=O)Nc1ccc(C2CCCCC2)cc1` (racemic) [Example 25], half-maximal inhibition (IC50) was put at 6.37 µM.

As to `COc1ccc(NC(=O)N[C@H](C)CCl)cc1OC` [Example 17], half-maximal inhibition (IC50) required 43.6 µM.

The compound `COc1ccc(NC(=O)N[C@@H](C)CCl)cc1OC` [Example 18] yielded an IC50 of more than 100 µM.

`CC[C@@H](CCl)NC(=O)Nc1ccc(OC)c(OC)c1` [Example 19] showed an IC50 of more than 100 µM.

As for `CC[C@H](CCl)NC(=O)Nc1ccc(OC)c(OC)c1` [Example 20], the IC50 is more than 100 µM.
